This note sets out measurements from patent US20250059232A1, “PENTAPEPTIDE AND USE THEREOF” (ENSOL BIOSCIENCES INC., priority 2021, published 2025).

In data set [1] the test system is MDA-MB-231. Nature of the data set: MDA-MB-231 fat pad xenograft in athymic nude mouse: tumor volume and weight. The class given is in vivo, human. The note with it: paclitaxel only. On the procedure: 5×10^6 cells/head of the human triple negative breast cancer cell line MDA-MB-231 (American Type Culture Collection (ATCC)) were mixed with Matrigel and PBS (1:1). 100 ul of the mixture was injected into the right third fat pad of 7-week-old female athymic nude mouse. After the transplantation, drug administration started from an average tumor size of 80 mm^3. Paclitaxel 20 mg/kg was administered on Day 0 and on Day 1. That is, the paclitaxel 20 mg/kg was administered a total of two times. Then, the peptide of Example 1 was administered in a dose of 100 mg/kg on Day 2, Day 4, and Day 6. That is, the peptide of Example 1 was administered a total of three times. Tumor volumes were measured 3 times a week for 3 weeks after administration of the first dose. Tumor weights were measured by necropsy after the end of the experiment. For each group, ten mice were used.
Tumor volume changes over time for each group are shown in FIG. 8, and tumor weight on the eighteenth day after the administration of the first dose for each group is shown in FIG. 9. FIG. 8 is a graph illustrating the changes in tumor volume over time after sample administration in animal experimentation. In FIG. 8, the x-axis represents the number of days elapsed after the start of administration and the y-axis represents the tumor volume change (mm^3). FIG. 9 is a graph illustrating a tumor weight for each test group in animal experimentation. In FIG. 9, the x-axis represents test groups and the y-axis represents tumor weights (mg).
(In general: Xenograft models place foreign cells or tissue in a host animal.)

Data set [2] relates to MDA-MB-231. Description: MDA-MB-231 xenograft in BalB/c nude mouse: survival rate. It is filed as in vivo. Conditions: paclitaxel only. On the procedure:
To investigate survival rates of the paclitaxel-only administration group and the group co-administered with paclitaxel and the peptide of Example 1, experiments described below were performed. 5×10^6 cells/head of the human triple negative breast cancer cell line MDA-MB-231 were mixed with Matrigel and PBS (1:1). 100 ul of the mixture was injected into the right third fat pad of 7-week-old female BalB/c nude mouse. After the transplantation, drug administration started from an average tumor size of 70 mm^3. Paclitaxel 20 mg/kg was administered once weekly, and the peptide 100 mg/kg of Example 1 was administered subcutaneously 3 times weekly at 48-hour intervals, 48 hours after the paclitaxel administration. Each test group was administered for 12 weeks and animal survival was observed daily. FIG. 10 is a graph illustrating survival rates over time after sample administration in animal experimentation. In FIG. 10, the x-axis represents the elapsed time (days) after administration and the y-axis represents survival rates (%). […] In the case of the group co-administered with the peptide of Example 1, the first deceased mouse occurred on Day 60 of administration.

Data set [3] has as its system 4T1 cells. Nature of the data set: Syngeneic model implanted with paclitaxel-resistant 4T1 cells: tumor volume, Western blot of cleaved PARP and LC3II. It is filed as in vivo, mouse. Conditions: paclitaxel only. On the procedure: Cell death and autophagy marker changes were determined by the Western blot method, using a syngeneic model implanted with 4T1 cells (American Type Culture Collection (ATCC)), which are mouse triple negative breast cancer tumor cells resistant to paclitaxel. The drug administration was started, when the tumor volume was reached to 70 mm^3 after a fat pad of Balb/c mice (6 weeks old, female) was transplanted with 4T1 cells in a concentration of 1×10^6 cells/head. For Week 1, paclitaxel 20 mg/kg was administered on Day 1 and Day 2, and the peptide (10, 100 mg/kg) of Example 1 was co-administered on Day 3, Day 5, and Day 7. In addition, the same process was performed for each of Week 2, and Week 3 (n=3). The tumor volumes were measured daily because the tumors grew very quickly. The changes in cleaved PARP, which is a cell death marker, and the changes in LC3II, which is an autophagy marker, in tumors were analyzed after necropsy on the day after the end of the 3-week administration, by a Western blot test.
FIG. 5 is a graph illustrating the results of tumor volume measurements according to the number of days after treatment in animal experimentation. In FIG. 5, the x-axis represents the number of days elapsed after treatment and the y-axis represents the tumor volume change (mm^3).
In addition, the changes in cleaved PARP, which is a cell death marker, are shown in FIG. 6, and the changes in LC3II, which is an autophagy marker, are shown in FIG. 7. FIG. 6 is a graph showing the changes in expression of cleaved PARP, which is a cell death marker, for each treatment group in animal experimentation, and FIG. 7 is a graph showing the changes in expression of LC3II, which is an autophagy marker, for each treatment group in animal experimentation.
For orientation: In western blotting, separated proteins are transferred to a membrane and probed.

Data set [4] in a line: Stability test: HPLC relative purity of peptide dissolved in buffer, by pH and temperature. It is filed as physicochemical. On the procedure:
For Example 1 and Comparative Example 1, stability tests according to pH for each temperature were performed.
Stability tests for each peptide were performed by liquid chromatography purity analysis for each temperature and each pH according to analysis timing (initial, 24 hours, 130 hours). […] Samples were analyzed by injecting 20 ul of each sample with an auto-sample injector, and the analysis column was Inspire C18 (4.6×250 mm, […], 12 nm) manufactured by Dikma. The analysis temperature was 40° C., and a UV wavelength of 215 nm was used.
On the basis of the HPLC analysis results, relative purity was calculated for Comparative Example 1 and Example 1 for each storage condition. The relative purity is the percentage of measured purity changing according to the storage period, with the initial purity being set to 100% for each sample. FIGS. 1 and 2 are graphs showing the results of stability tests for Example and Comparative Example stored at a temperature of 25° C., in which FIG. 1 is a graph of a test result for 24 hours of storage, and FIG. 2 is a graph of a test result for 130 hours of storage. FIGS. 3 and 4 are graphs showing the results of stability tests for Example and Comparative Example stored at 40° C., in which FIG. 3 is a graph of a test result for 24 hours of storage, and FIG. 4 is a graph of a test result for 130 hours of storage. In each graph, the x-axis represents the test group by pH and the y-axis represents the relative purity […].

Setting [5] is: eighteenth day after first dose.

As for `CC(=O)O[C@H]1C(=O)[C@@]2(C)[C@H]([C@H](OC(=O)c3ccccc3)[C@]3(O)C[C@H](OC(=O)[C@H](O)[C@@H](NC(=O)c4ccccc4)c4ccccc4)C(C)=C1C3(C)C)[C@]1(OC(C)=O)CO[C@@H]1C[C@@H]2O` [paclitaxel, reference compound], the “CR (mice in which the tumor disappeared)” value in data set [1] (20 mg/kg Day 0 and Day 1, ten mice) came out at 10%. Besides, in data set [1] (setting [5]), the “Reduction in tumor volume compared to control group” value amounted to 33% and the “Reduction in tumor weight compared to control group” value turned out to be 34.5%. In addition, in data set [1] (one mouse), the “Day on which the tumor disappeared” value stood at 16 days. The “Day of administration on which the first deceased mouse occurred” value in data set [2] (20 mg/kg once weekly) turned out to be 21 days. For the same molecule, the “Survival rate after the end of the experiment” value in data set [2] (12 weeks) was determined as 30%. In addition, in data set [3] (20 mg/kg, Balb/c mice), the “Reduction in tumor volume compared to the control group” value is listed as “insignificant reduction in tumor volume”. Further, the “Increase in LC3II expression level in tumor compared to control group” value in data set [3] (Western blot after 3-week administration) is 2.4 fold.

For “QLHLD [Comparative Example 1, reference compound]”, the “Stability (summary in words)” value in data set [4] (liquid state, pH 2-9, 25 and 40° C., up to 130 hours) is reported as “in some cases, the samples were not stable”. In addition, the Relative purity in data set [4] (pH 2, 25 ± 2° C., RH 60 ± 5%, storage 0 hours (initial set to 100%)) is 100.0%; in data set [4] (pH 2, 25 ± 2° C., RH 60 ± 5%, storage 24 hours), 79.0%; in data set [4] (pH 2, 25 ± 2° C., RH 60 ± 5%, storage 130 hours), 25.0%; in data set [4] (pH 2, 40 ± 2° C., RH 75 ± 5%, storage 0 hours (initial set to 100%)) it was 100.0%; in data set [4] (pH 2, 40 ± 2° C., RH 75 ± 5%, storage 24 hours), 27.6%; in data set [4] (pH 2, 40 ± 2° C., RH 75 ± 5%, storage 130 hours) it was 0.3%. Moreover, the Relative purity in data set [4] (pH 5, 25 ± 2° C., RH 60 ± 5%, storage 0 hours (initial set to 100%)) was 100.0%; in data set [4] (pH 5, 25 ± 2° C., RH 60 ± 5%, storage 24 hours) it was 77.9%; in data set [4] (pH 5, 25 ± 2° C., RH 60 ± 5%, storage 130 hours) it was 21.7%; in data set [4] (pH 5, 40 ± 2° C., RH 75 ± 5%, storage 0 hours (initial set to 100%)), 100.0%; in data set [4] (pH 5, 40 ± 2° C., RH 75 ± 5%, storage 24 hours) it was 21.8%; in data set [4] (pH 5, 40 ± 2° C., RH 75 ± 5%, storage 130 hours), 0.1%. The Relative purity in data set [4] (pH 7, 25 ± 2° C., RH 60 ± 5%, storage 0 hours (initial set to 100%)) is reported as 100.0%; in data set [4] (pH 7, 25 ± 2° C., RH 60 ± 5%, storage 24 hours), 28.5%; in data set [4] (pH 7, 25 ± 2° C., RH 60 ± 5%, storage 130 hours) it was 0.1%; in data set [4] (pH 7, 40 ± 2° C., RH 75 ± 5%, storage 0 hours (initial set to 100%)) it was 100.0%; in data set [4] (pH 7, 40 ± 2° C., RH 75 ± 5%, storage 24 hours), 0.2%; in data set [4] (pH 7, 40 ± 2° C., RH 75 ± 5%, storage 130 hours) it was 0.0%. For the same molecule, the Relative purity in data set [4] (pH 9, 25 ± 2° C., RH 60 ± 5%, storage 0 hours (initial set to 100%)) came to 100.0%; in data set [4] (pH 9, 25 ± 2° C., RH 60 ± 5%, storage 24 hours) it was 50.2%; in data set [4] (pH 9, 25 ± 2° C., RH 60 ± 5%, storage 130 hours), 2.4%; in data set [4] (pH 9, 40 ± 2° C., RH 75 ± 5%, storage 0 hours (initial set to 100%)), 100.0%; in data set [4] (pH 9, 40 ± 2° C., RH 75 ± 5%, storage 24 hours) it was 8.5%; in data set [4] (pH 9, 40 ± 2° C., RH 75 ± 5%, storage 130 hours), 0.0%.
